Data on 6 compounds can be found in patent US20130203822A1, “COMPOUNDS FOR TREATMENT OF TUMORS BEARING D[…] ONCOPROTEINS” (priority 2010, published 2013).

In one data set the test system is MYCN 3′UTR. The data set is described as follows: luciferase reporter screening and counter-screening in CHP134-MYCN and CHP134-CTRL stable clones. Format: cell-based, human. To be noted: 24 h; for dependence of luciferase reporter upregulation on MYCN 3′UTR (counter-screening): 2 uM, CHP134-MYCN#3 versus CHP134-CTRL#19. As for the experimental part: Reporter constructs containing the firefly luciferase reporter gene under the control of the CMV viral promoter and followed by either the whole MYCN 3′UTR (pGL4.26-MYCN3UTR) or the only SV40 poly(A) region (pGL4.26-CTRL) as a control were produced as disclosed above.
The CHP134 neuroblastoma cell line was used to generate stable transfection clones as disclosed in Example 3.
The screening was carried out in the CHP134-MYCN#3 stable clone with the Spectrum Collection small molecule library (MicroSource Discovery) composed of 2000 compounds stored at 10 mM in DMSO: 800 drugs that have been introduced in the US, 200 drugs that are limited in use to Europe and Japan, 580 natural products, 420 compounds with reported biological activities.
The assay was run in triplicates in 96-well plates. CHP134-MYCN stable clone cells were trypsinized, harvested and resuspended in culture medium. Tecan Multichannel arm (MCA96) of a Tecan EVO 200 robot (Tecan) was used to add 150 uL containing 15000 cells to the 96-well white CulturePlate-96 (Perkin Elmer).
After adhesion, the 10 mM compounds were diluted to 75 uM in PBS and immediately pipetted into the 96 wells in order to have a final concentration of 2 uM in the cells. Baseline controls were obtained treating the first column wells with PBS+DMSO at the same final concentration of the samples.
Luciferase activity was assessed using OneGlow Luciferase assay (Promega) according to the manufacturer's method, after 24 h of incubation at 37° with 5% CO2 and 100% relative humidity. Luminescence signal was read on a Tecan F200 multiplate reader (Tecan) integrated with the robot.
The majority of the hits (Table 1) were then checked for reproducibility and cytotoxic activity, the most interesting compounds were also tested for dose-responsiveness. The same hits were subsequently subjected to counter-screening with the stable clone CHP134-CTRL#19 expressing the control pGL4.26-CTRL plasmid, to segregate plasmid promoter-dependent transcriptional control effects.
To verify the specificity of the CPX effect for the MYCN 3′UTR and its clone-independency, the treatment was repeated with the CHP134-MYCN#3 clone and the CHP134-CTRL#19 clones and with two independent others, again stably transfected with the pGL4.26-MYCN3UTR and the pGL4.26-CTRL plasmids (respectively, CHP134-MYCN#1 and the CHP134-CTRL#17 clones).
Treatment with CPX 2 uM and measurement of luciferase activity with the OneGlow luciferase assay after 24 h provided a confirmation of the screening results (FIG. 3).

Data set [1] has as its system CHP134-MYCN#3 neuroblastoma cell clone. The data set is described as follows: WST-1 cell cytotoxicity assay with selected hits at 2 uM. Conditions: MYCN-amplified neuroblastoma cells, 24 or 48 hours. It is filed as cell-based, human. As for the experimental part: a) Cell cytotoxicity was performed by WST1 assay (Roche) following the manufacturer's instruction: 15000 cells were plated in each well of 96-well transparent Spectra Plate (Perkin Elmer) in 150 ul of complete media.
After adhesion, cells were treated with the selected drugs (Table 1) at 2 uM concentration and incubated at 37° with 5% CO2 and 100% relative humidity for 24 or 48 hours. At the defined endpoint, 15 uL of WST1 reagent were added and after 4 hours incubation at 37° with 5% CO2 and 100% relative humidity, plates were read for absorbance at 450 nm in a Tecan F200 multiplate reader (Tecan).
Different measurements were needed in order to calculate the percentage growth: time zero (Tz: that represent a measurement of the cell population at the time of drug addition), control growth (C: measures the growth of the cells treated with vehicle only after 24 or 48 hours) and test growth (Ti: that represent a measurement of the cell population after 24 or 48 hours). Percentage growth is calculated as:
[(Ti−Tz)/(C−Tz)]×100 eq. (2)
for concentrations for which Ti>=Tz;
for concentrations for which Ti<Tz.
For orientation: Tetrazolium dyes change colour on reduction, which living cells bring about.

The next data set concerns CHP134 cells. Put plainly: Annexin V-FITC / PI apoptosis assay by flow cytometry. Format: cell-based, human. Conditions: CHP134, 24 and 48 hr, different concentrations. As to the method: c) Apoptosis assay was performed by flow cytometry. CHP134 cells were seeded 10 cm-dishes at the concentration 1×10^6 cells under standard culture conditions. In three days cells were treated with CPX at different concentration for 24 and 48 hr. The cells were then harvested, washed with cold PBS and processed for apoptosis assay using the Annexin V-FITC Apoptosis Detection Kit I (BD Biosciences) by following the instructions of the manufacturer. Briefly, cells were stained with FITC-Annexin V and PI (Propidium Iodide) in order to allow for the identification of death cells (FITC and PI positive), viable cells (FITC and PI negative) and pre-apoptotic cells (FITC positive and PI negative). Flow cytometric analysis was performed with the BD FACS Canto (BD Biosciences).
The results are shown, in FIG. 6. Numbers indicate the percentage of apoptotic/dead cells (P1) and pre-apoptotic cells (P2) respectively.
In general terms: In flow cytometry, cells or beads pass a laser one at a time.

Another data set has as its system MYCN protein. Put plainly: immunofluorescence analysis of MYCN expression. Format: cell-based, human. To be noted: CHP134 cells, 24 h, different concentration of CPX. As to the method: To verify if the CPX enhancement effects on luciferase activity was accompanied by an increase in MYCN protein levels, an immunofluorescence analysis were performed on CHP134 cells plated in 96-well imaging plates (BD) and treated after adhesion for 24 h at different concentration of CPX. Cells were fixed by paraformaldehyde (PFA) 3.7%, permeabilized with 0.1% Triton X100, incubated with anti-MYCN mouse monoclonal antibody (ab16898, ABCAM) and stained with Alexafluor 488 rabbit anti-mouse secondary antibody.
Images were acquired by Operetta (Perkin Elmer) high content system and analyzed by the Harmony software.
Results represent fluorescence intensity in the nuclear area previously identified by DAPI staining.

For data set [2] the following is noted: rat; cited from earlier work.
The conditions of data set [3]: humans; deferiprone: iron overload treatment in transfused thalassemia patients; doxorubicin: high dose infusional in tumor bearing patients; cited from earlier work.
Data set [4] has as its system CHP134 and SiMa neuroblastoma cell lines. Put plainly: WST-1 dose-response cytotoxicity of ciclopirox olamine and piroctone olamine. It is filed as cell-based, human. To be noted: 0.33-100 μM, 48 hours. As to the method:
After adhesion, cells were treated with different concentration of CPX ranging from 66 nM to 66 uM concentration and incubated at 37° with 5% CO2 and 100% relative humidity for 48 hours. At the defined endpoint, 15 ul of WST1 reagent were added and after 4 hours incubation at 37° with 5% CO2 and 100% relative humidity, plates were read for absorbance at 450 nm in a Tecan F200 multiplate reader (Tecan).
Different measurements were needed in order to calculate the percentage growth: time zero (Tz: that represent a measurement of the cell population at the time of drug addition), control growth (C: measures the growth of the cells treated with vehicle only after 48 hours) and test growth (Ti: that represent a measurement of the cell population after 48 hours treatment with CPX).
Percentage growth is calculated as above by means of eq.s (2) and (3).
In order to understand if compounds of similar molecular structure to that of CPX could be also effective in inducing a cytotoxic activity, we treated two neuroblastoma cell lines, CHP134 and SiMa, with increasing concentrations of both compounds (0.33-1-3.3-10-33-100 μM), and we measured cytotoxicity after 48 hours as detailed before.

Structures can show the parent of a compound that is named as a salt.

Consider `Cc1cc(C2CCCCC2)n(O)c(=O)c1` [ciclopirox olamine, CICLOPIROX OLAMINE], for which the “dependence of luciferase reporter upregulation on MYCN 3′UTR (counter-screening)” value (from here on “dependence”) with MYCN 3′UTR is given as “truly dependent on MYCN 3′UTR”. Also, the luciferase expression entry in the data set on MYCN 3′UTR (CPX 2 uM, clones CHP134-MYCN#3, CHP134-MYCN#1, CHP134-CTRL#19, CHP134-CTRL#17) is reported as “clone-independent, MYCN 3′UTR specific effect of increased luciferase expression”. Moreover, the cytotoxicity entry in data set [1] was “efficient cytotoxicity”. The “effect on cell viability: percentage of apoptotic/dead (P1) and pre-apoptotic (P2) cells” value in the data set with CHP134 cells is “increased percentage of apoptotic/dead cells”. Further, the “MYCN nuclear immunostaining (fluorescence intensity in the nuclear area)” value in the data set on MYCN protein was “dose-dependent increase”. In addition, in data set [2], the “acute lethal dose 50 (LD50)” value is recorded as 2350 mg/kg.
`COc1cccc2c1C(=O)c1c(O)c3c(c(O)c1C2=O)C[C@@](O)(C(C)=O)C[C@@H]3O[C@H]1C[C@H](N)[C@H](O)[C@H](C)O1` [daunorubicin, DAUNORUBICIN]: in the data set with MYCN 3′UTR, the “dependence” value is listed as “truly dependent on MYCN 3′UTR”. The cytotoxicity result in data set [1] is reported as “efficient cytotoxicity”.
Take `Cc1c(O)c(=O)ccn1C` [deferiprone, 3-hydroxy-1,2-dimethylpyridin-4-one]: in data set [2], the “acute lethal dose 50 (LD50)” value was 2000 mg/kg. The plasma concentration in data set [3] is no less than 250 µM.
With `COc1cccc2c1C(=O)c1c(O)c3c(c(O)c1C2=O)C[C@@](O)(C(=O)CO)C[C@@H]3O[C@H]1C[C@H](N)[C@H](O)[C@H](C)O1` [doxorubicin, DOXORUBICIN], in the data set with MYCN 3′UTR, the “dependence” value is given as “truly dependent on MYCN 3′UTR”. Moreover, in data set [1], the cytotoxicity entry is “efficient cytotoxicity”. Further, the “acute lethal dose 50 (LD50)” value in data set [2] is reported as 10.5 mg/kg. Further, in data set [3], the plasma concentration is 0.1 µM.
On to `COc1cccc2c1C(=O)c1c(O)c3c(c(O)c1C2=O)C[C@@](O)(C(=O)CO)C[C@@H]3O[C@H]1C[C@H](N)[C@@H](O)[C@H](C)O1` [epirubicin, EPIRUBICIN HYDROCHLORIDE], for which, in data set [1], the cytotoxicity result is on record as “efficient cytotoxicity”.
`Cc1cc(CC(C)CC(C)(C)C)n(O)c(=O)c1.NCCO` (stereo not shown) [piroctone olamine]: in data set [4], the “cytotoxic activity compared with CPX” value was “even stronger activity”.
